US9216147B2, “Mild cosmetic cleansing composition” (Henkel AG & Co. KGaA, priority 2011, dated 2015)

Experiments:
[1] = Irritation test (reaction time method) against commercially available baby and children's shampoos; settings: 5% in water (reference)
Protocol: Cleansing agents 1 and 2 were compared in a test (reaction time method) with various commercially available baby and children's shampoos. The shampoos were diluted down to 50% with water in each case.
A 5% sodium laureth sulfate solution served as a reference.
A Q value of >1.20 denotes an irritating effect; a Q value of <0.8 denotes slight irritation.

[2] = pH of the diluted test solution; type: physicochemical; settings: 5% in water

With “sodium laureth sulfate [Reference (SLES, 5% in water)]” the “Reaction time method [Q]” value [1] was 1.00 and the pH [2] was 7.2.
